Laboratory results as given in patent US20260110682A1, “COMPOSITIONS AND METHODS TARGETING SWIP-10 AND MBLAC1 FOR THE THERAPEUTIC MODULATION OF COPPER DYSHOMEOSTASIS” (Florida Atlantic University Board of Trustees, priority 2022, published 2026).

Assays:
DA neurons = experiment: DA neuron degeneration in worms with GFP-labeled DA neurons (BY250), scored by fluorescence/confocal imaging; assay type: in vivo, C. elegans; details: for rescue of DA neuron degeneration of swip-10: BY250
Method: FIG. 6A: WT transgenic worms with GFP-labeled DA neurons (BY250) were raised on agar plates containing vehicle or 10 μM of the Cu+ specific chelator BCS and imaged by fluorescence microscopy at the late L4 stage to quantify DA neuron degeneration. Data derived from 4 experiments for each condition with statistical evaluation by a one-tailed Student's t-test. […] CuCl2 is known to generate Cu+ upon uptake into cells, thus elevating intracellular Cu+ levels. […] Sustained alterations in mitochondrial function and increased oxidative stress are expected to place neurons at risk for death due to their high metabolic rate. […] Assays were performed blind to genotype and treatment, and degeneration assessed by scoring the frequency of dendritic breaks, shrunken soma and missing neurons as described by Gibson et al, 2018. Extending work examining degeneration in BY250: swip-10 vs BY250, a potential Cu-sensitive regulation of swip-10 degeneration was assessed using growth of BY250 animals on the Cu+ specific chelator, BCS, to promote degeneration, and incubation of BY250: swip-10 on CuCl2 and elesclomol to prevent swip-10 degeneration.

chca-1 = experiment: qPCR of chca-1 RNA levels in worms; assay type: in vivo, C. elegans; details: N2 worms treated with BCS; similar extent as in swip-10 animals
[1] = tested on: mitochondrial respiration; details: swip-10 KO worms treated with FCCP
Text: Data here are presented as mean oxygen consumption (pmol/second) of 100 worms. ** represents statistical significance (P<0.01) compared to the N2 strain by a two-tailed (unpaired) t-test.

MBLAC1 = molecular target: T1, MBLAC1 (Homo sapiens, UniProt A4D2B0); details: cited from earlier work
T1 sequence (A4D2B0 1-266): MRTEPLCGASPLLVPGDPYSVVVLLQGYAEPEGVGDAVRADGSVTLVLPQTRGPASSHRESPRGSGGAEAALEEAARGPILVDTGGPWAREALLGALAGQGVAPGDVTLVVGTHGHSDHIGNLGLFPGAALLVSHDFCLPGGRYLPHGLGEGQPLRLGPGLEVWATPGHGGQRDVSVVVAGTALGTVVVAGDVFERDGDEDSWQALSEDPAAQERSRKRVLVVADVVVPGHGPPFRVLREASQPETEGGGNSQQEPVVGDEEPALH

[2] = tested on: animal models of AD and other neurodegenerative disorders; details: stroke, oxygen glucose deprivation induced neurodegeneration, motor neuron degeneration; cited from earlier work
[3] = tested on: GLT1 type glutamate transporter; details: rodents treated with ceftriaxone; cited from earlier work
Menkes disease = details: boosting Cu levels; cited from earlier work

SMILES: Cc1cc(-c2ccc(S(=O)(=O)O)cc2)c2ccc3c(-c4ccc(S(=O)(=O)O)cc4)cc(C)nc3c2n1 [BCS, bathocuproinedisulfonic acid]
- DA neuron degeneration (DA neurons; WT (BY250) worms raised on agar plates containing 10 μM BCS, imaged at late L4 stage): DA neuron degeneration generated
- chca-1 RNA levels (chca-1): elevated

SMILES: [Cl][Cu][Cl] [CuCl2]
- rescue of DA neuron degeneration of swip-10 (DA neurons; swip-10 animals incubated with CuCl2 (10 μM)): rescued

SMILES: N#CC(C#N)=NNc1ccc(OC(F)(F)F)cc1 [FCCP]
- oxygen consumption [1]: restores oxygen consumption

SMILES: CO/N=C(\C(=O)N[C@@H]1C(=O)N2C(C(=O)O)=C(CSc3nc(=O)c(=O)[nH]n3C)CS[C@H]12)c1csc(N)n1 [ceftriaxone]
- binding to MBLAC1 (MBLAC1): binds MBLAC1
- neuroprotection [2]: demonstrates neuroprotection
- GLT1 type glutamate transporter level [3]: triggers an elevation

SMILES: CN(NC(=O)CC(=O)NN(C)C(=S)c1ccccc1)C(=S)c1ccccc1 [elesclomol]
- rescue of DA neuron degeneration of swip-10 (DA neurons; swip-10 animals incubated with elesclomol (5 μM)): rescued
- pathology associated with Menkes disease (Menkes disease): reduce pathology
